Reference: PubChem BioAssay AID192 (DTP/NCI, 2004)
Where “and” joins values, the source holds several entries; their conditions need not be identical. Equal values may be shown once. Toxic doses and inconclusive results are not listed. Square brackets hold non-standard residues; d marks the D form. Peptide text beside a SMILES is read from it. * marks the point of attachment. ξ: configuration not given here. Cbz = O=C(OCc1ccccc1)*; ξK = NCCCCC(N)C(=O)O

Test system: BDF1 mice, B16 melanoma ip, median survival T/C
Assay: NCI In Vivo Anticancer Drug Screen. Data for tumor model B16 Melanoma (intraperitoneal) in B6D2F1 (BDF1) mice
Settings: endpoint: median survival time, higher = longer survival
Procedure, shortened: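 The ratio T/C compares compound-treated mice with vehicle-treated controls, using survival or tumor size as the endpoint in a transplantable tumor model.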

[1] = dose: 50.0 mg/kg/injection, schedule: Q04DX003 (ip), vehicle: saline with Tween-80
[2] = dose: 100.0 mg/kg/injection, schedule: Q04DX003 (ip), vehicle: saline with Tween-80
[3] = dose: 50.0 mg/kg/injection, schedule: Q01DX009 (ip), vehicle: saline with Tween-80
[4] = dose: 100.0 mg/kg/injection, schedule: Q01DX009 (ip), vehicle: saline with Tween-80
[5] = dose: 200.0 mg/kg/injection, schedule: Q01DX009 (ip), vehicle: saline with Tween-80
[6] = dose: 200.0 mg/kg/injection, schedule: Q04DX003 (ip), vehicle: saline with Tween-80
[7] = dose: 50.0 mg/kg/injection, schedule: Q01DX009 (ip), vehicle: saline
[8] = dose: 100.0 mg/kg/injection, schedule: Q01DX009 (ip), vehicle: Klucel (hydroxypropylcellulose) (HPC)
[9] = dose: 6.25 mg/kg/injection, schedule: Q01DX009 (ip), vehicle: saline
[10] = dose: 12.5 mg/kg/injection, schedule: Q01DX009 (ip), vehicle: saline
[11] = dose: 25.0 mg/kg/injection, schedule: Q01DX009 (ip), vehicle: saline
[12] = dose: 6.25 mg/kg/injection, schedule: Q01DX009 (ip), vehicle: saline with Tween-80
[13] = dose: 12.5 mg/kg/injection, schedule: Q01DX009 (ip), vehicle: saline with Tween-80
[14] = dose: 25.0 mg/kg/injection, schedule: Q01DX009 (ip), vehicle: saline with Tween-80
[15] = dose: 100.0 mg/kg/injection, schedule: Q01DX009 (ip), vehicle: saline

## COC(=O)Nc1nc2ccc(C(=O)c3cccs3)cc2[nH]1
dose: 20.0 mg/kg/injection, schedule: Q01DX015 (ip), vehicle: saline
  T/C: 97 % of control
dose: 50.0 mg/kg/injection, schedule: Q04DX003 (ip), vehicle: other
  T/C: 103 % of control
[1]
  T/C: 180 % of control
dose: 50.0 mg/kg/injection, schedule: Q05DX005 (ip), vehicle: saline
  T/C: 165 % of control
dose: 60.0 mg/kg/injection, schedule: Q05DX005 (ip), vehicle: saline
  T/C: 195 % of control
dose: 70.0 mg/kg/injection, schedule: Q05DX005 (ip), vehicle: saline
  T/C: 191 % of control
dose: 75.0 mg/kg/injection, schedule: Q04DX003 (ip), vehicle: other
  T/C: 121 % of control
[2]
  T/C: 211 % of control

## CC(C)C1CC2CCC3C(C)(C(=O)O)CCCC3(C)C2CC1CO (stereo unspecified)
[3]
  T/C: 99 % of control
[1]
  T/C: 100 % of control
[4]
  T/C: 96 % of control
[2]
  T/C: 97 % of control
[5]
  T/C: 94 % of control
[6]
  T/C: 90 % of control

## CO[C@H]1/C=C/O[C@@]2(C)Oc3c(C)c(O)c4c(O)c(c(/C=N/N5C(C)CN(Cc6ccccc6)CC5C)c(O)c4c3C2=O)NC(=O)/C(C)=C\C=C\[C@H](C)[C@H](O)[C@@H](C)[C@@H](O)[C@@H](C)[C@H](OC(C)=O)[C@@H]1C (stereo partly specified)
dose: 8.0 mg/kg/injection, schedule: Q03HX008 (ip), vehicle: clinical formulation
  T/C: 94 % of control
dose: 8.0 mg/kg/injection, schedule: Q03HX024 (ip), vehicle: clinical formulation
  T/C: 88 % of control
dose: 16.0 mg/kg/injection, schedule: Q03HX008 (ip), vehicle: clinical formulation
  T/C: 90 % of control
dose: 25.0 mg/kg/injection, schedule: Q02DX Z (oral), vehicle: Klucel (hydroxypropylcellulose) (HPC)
  T/C: 98 % of control
dose: 32.0 mg/kg/injection, schedule: Q03HX024 (ip), vehicle: clinical formulation
  T/C: 88 % of control
[7]
  T/C: 123 % of control
dose: 50.0 mg/kg/injection, schedule: Q02DX Z (oral), vehicle: Klucel (hydroxypropylcellulose) (HPC)
  T/C: 116 % of control
dose: 64.0 mg/kg/injection, schedule: Q04DX005 (ip), vehicle: clinical formulation
  T/C: 93 % of control
dose: 64.0 mg/kg/injection, schedule: Q08DX003 (ip), vehicle: clinical formulation
  T/C: 91 % of control
dose: 100.0 mg/kg/injection, schedule: Q02DX Z (oral), vehicle: Klucel (hydroxypropylcellulose) (HPC)
  T/C: 103 % of control
dose: 200.0 mg/kg/injection, schedule: Q01DX009 (ip), vehicle: saline
  T/C: 110 % of control
dose: 200.0 mg/kg/injection, schedule: Q02DX Z (oral), vehicle: Klucel (hydroxypropylcellulose) (HPC)
  T/C: 114 % of control
dose: 256.0 mg/kg/injection, schedule: Q01DX001 (ip), vehicle: clinical formulation
  T/C: 86 % of control
dose: 400.0 mg/kg/injection, schedule: Q02DX Z (oral), vehicle: Klucel (hydroxypropylcellulose) (HPC)
  T/C: 88 % of control
dose: 800.0 mg/kg/injection, schedule: Q02DX Z (oral), vehicle: Klucel (hydroxypropylcellulose) (HPC)
  T/C: 113 % of control
dose: 1600.0 mg/kg/injection, schedule: Q02DX Z (oral), vehicle: Klucel (hydroxypropylcellulose) (HPC)
  T/C: 97 % of control

## O=c1oc(/C=C/c2ccccc2)nc2cc(Cl)ccc12
[8]
  T/C: 109 % of control

## CC1CN1P(=O)(N1CC1C)N1CC1C (stereo unspecified)
[9]
  T/C: 120 % of control
[10]
  T/C: 100 % of control and 112 % of control
[11]
  T/C: 113 % of control
dose: 25.0 mg/kg/injection, schedule: Q04DX003 (ip), vehicle: saline
  T/C: 113 % of control
dose: 50.0 mg/kg/injection, schedule: Q04DX003 (ip), vehicle: saline
  T/C: 120 % of control
dose: 100.0 mg/kg/injection, schedule: Q04DX003 (ip), vehicle: saline
  T/C: 93 % of control

## NCC(=O)NC(CCCCNC(=O)OCc1ccccc1)C(=O)O (stereo unspecified) (H-Gly-[ξK](Cbz)-OH)
dose: 3.12 mg/kg/injection, schedule: Q01DX009 (ip), vehicle: saline with Tween-80
  T/C: 97 % of control
[12]
  T/C: 101 % of control

## Clc1ccc2nc(CI)c(CI)nc2c1
dose: 0.19 mg/kg/injection, schedule: Q01DX009 (ip), vehicle: saline with Tween-80
  T/C: 90 % of control
dose: 0.39 mg/kg/injection, schedule: Q01DX009 (ip), vehicle: saline with Tween-80
  T/C: 90 % of control
dose: 0.78 mg/kg/injection, schedule: Q01DX009 (ip), vehicle: saline with Tween-80
  T/C: 100 % of control
dose: 1.56 mg/kg/injection, schedule: Q01DX009 (ip), vehicle: saline with Tween-80
  T/C: 104 % of control
[12]
  T/C: 102 % of control
[13]
  T/C: 97 % of control
[14]
  T/C: 89 % of control and 97 % of control
dose: 25.0 mg/kg/injection, schedule: Q04DX003 (ip), vehicle: saline with Tween-80
  T/C: 100 % of control
[1]
  T/C: 100 % of control

## CCCCCCCCCCCCCCCC#N
dose: 25.0 mg/kg/injection, schedule: Q04DX003 (ip), vehicle: Klucel (hydroxypropylcellulose) (HPC)
  T/C: 99 % of control
dose: 50.0 mg/kg/injection, schedule: Q04DX003 (ip), vehicle: Klucel (hydroxypropylcellulose) (HPC)
  T/C: 96 % of control
dose: 100.0 mg/kg/injection, schedule: Q04DX003 (ip), vehicle: Klucel (hydroxypropylcellulose) (HPC)
  T/C: 92 % of control

## CCOC(=O)c1cc(-c2ccc(Cl)cc2)nc2c(Cl)cc(Cl)cc12
[4]
  T/C: 101 % of control
[5]
  T/C: 89 % of control
dose: 400.0 mg/kg/injection, schedule: Q01DX009 (ip), vehicle: saline with Tween-80
  T/C: 88 % of control

## Cc1cc(C)c(CN)cc1CN
[14]
  T/C: 108 % of control
[3]
  T/C: 112 % of control

## c1cc[c]([Sn]([c]2ccccc2)([c]2ccccc2)[n]2cccc2)cc1
[9]
  T/C: 115 % of control

## COP(=O)(OC)OCc1cnc(SC)nc1N
[7]
  T/C: 121 % of control
[15]
  T/C: 100 % of control

## CN(C)CCC[N+]1([O-])c2ccccc2CCc2ccccc21
dose: 4.68 mg/kg/injection, schedule: Q01DX009 (ip), vehicle: saline
  T/C: 97 % of control
dose: 9.37 mg/kg/injection, schedule: Q01DX009 (ip), vehicle: saline
  T/C: 118 % of control
dose: 18.75 mg/kg/injection, schedule: Q01DX009 (ip), vehicle: saline
  T/C: 95 % of control
dose: 37.5 mg/kg/injection, schedule: Q01DX009 (ip), vehicle: saline
  T/C: 100 % of control
dose: 75.0 mg/kg/injection, schedule: Q04DX003 (ip), vehicle: saline
  T/C: 96 % of control

## O=C(O)/C(Br)=C/c1ccccc1
[1]
  T/C: 107 % of control
[2]
  T/C: 112 % of control
[6]
  T/C: 102 % of control

## CCOC12c3cc(OC)ccc3N(S(=O)(=O)c3ccc(C)cc3)CC1C2(Br)Br (stereo unspecified)
dose: 50.0 mg/kg/injection, schedule: Q01DX009 (ip), vehicle: Klucel (hydroxypropylcellulose) (HPC)
  T/C: 103 % of control
[8]
  T/C: 93 % of control
dose: 200.0 mg/kg/injection, schedule: Q01DX009 (ip), vehicle: Klucel (hydroxypropylcellulose) (HPC)
  T/C: 89 % of control

## CCOC(=O)c1ccc(Nc2sc(C(=O)c3ccc(Br)cc3)c(N)c2C#N)cc1
[12]
  T/C: 92 % of control
[13]
  T/C: 87 % of control
[14]
  T/C: 88 % of control
[3]
  T/C: 86 % of control

## O=C(Nc1ccc([N+](=O)[O-])cc1)Nc1nccs1
dose: 50.0 mg/kg/injection, schedule: Q01DX009 (ip), vehicle: distilled water + Tween-80
  T/C: 152 % of control

## C=CCN(CC=C)P(=O)(N1CC1)N1CC1C (stereo unspecified)
dose: 0.36 mg/kg/injection, schedule: Q01DX009 (ip), vehicle: saline
  T/C: 112 % of control
dose: 0.5 mg/kg/injection, schedule: Q01DX009 (ip), vehicle: saline
  T/C: 110 % of control
dose: 0.83 mg/kg/injection, schedule: Q01DX009 (ip), vehicle: saline
  T/C: 116 % of control
dose: 1.25 mg/kg/injection, schedule: Q01DX009 (ip), vehicle: saline
  T/C: 114 % of control
dose: 1.8 mg/kg/injection, schedule: Q01DX009 (ip), vehicle: saline
  T/C: 99 % of control

## CN(C)CC(C(=O)Cc1ccccc1)c1ccccc1 (stereo unspecified)
[11]
  T/C: 93 % of control
[7]
  T/C: 88 % of control
[15]
  T/C: 97 % of control

## CC1NCCNCCNCCNC(C)c2cccc1n2 (stereo unspecified)
[9]
  T/C: 107 % of control
[10]
  T/C: 98 % of control
[11]
  T/C: 102 % of control
